The subject of this test is E. coli WT-GFP vs G2058-humanized RFP, fluorescence, 24 h. The experiment in a line: growth inhibition of wild-type GFP E. coli versus G2058-humanized strain, dose response, G2058 mutant RFP vs wild-type GFP, cherry-pick, two tests (AID 1035470).
Setting [1] is: E. coli WT-GFP vs G2058-humanized RFP mixed culture, total growth OD600, 24 h.
Setting [2] is: measured here: G2058 humanized mutant RFP growth.

This passage reports AC50 results from PubChem BioAssay AID1035470 (Broad Institute, 2014).

Records with an inconclusive call do not appear. Activity calls are given as the source filed them.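 How the source made its calls: active means compound lowering the normal-ribosome reporter at least twice as much as the humanized-ribosome reporter, growth loss under a set limit; inconclusive means no clear call, values can overlap the other calls; inactive means the rest.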 Where only a bound is given, the exact number is not on record here.

The term AC50 denotes the concentration at which the activity in the assay is half-maximal.

`CCc1ccc(OCC(=O)NCc2ccco2)c(Br)c1`: the AC50 is > 100 µM (inactive).

In the case of `O=C(NCc1ccccc1Cl)[C@H]1CCCN1C(=O)[C@H]1CCCN1C(=O)c1cccc2ccccc12`, the AC50 was > 100 µM (inactive). Under setting [1], this molecule returned an AC50 of more than 100 µM.

In the case of `COC(=O)c1cccc(CN2C(=O)SC(Nc3ccc(C)cc3)C2=O)c1` (configuration not stated), the AC50 was > 100 µM (inactive).

As for `Nc1c(C(=O)NCCN2CCOCC2)c2nc3ccccc3nc2n1Cc1ccccc1`, the AC50 was > 100 µM (inactive).

`COc1ccc(CN2C(=O)CC(Cc3cc(C)cc(C)c3)C2=O)cc1OC` (configuration not stated) yielded an AC50 under setting [1] of more than 100 µM.

In the case of `N#Cc1ccc(C(=O)Nc2ccn(-c3ccccc3)n2)cc1`, the AC50 was > 100 µM (inactive).

With `CCOc1ccccc1C(=O)NCC(=O)OCCOc1cccc(Cl)c1`, the AC50 under setting [2] was more than 100 µM.

As to `N#CCC(=O)Nc1ccc(C(=O)OCC(=O)Nc2ccc3ccccc3c2)cc1`, the AC50 was > 100 µM (inactive).

Regarding `Cc1nc(C)c(-c2ccn(S(=O)(=O)c3ccc(Cl)cc3)n2)o1`, the AC50 was > 100 µM (inactive).

As to `CCCCn1c(=O)[nH]c(=O)c2c1nc(-c1ccccc1F)n2Cc1ccccc1`, the AC50 is > 100 µM (inactive). Under setting [1], this molecule returned an AC50 of more than 100 µM.

As to `COc1ccc(-c2csc(NC(=O)c3ccoc3C)n2)cc1`, the AC50 under setting [1] was more than 100 µM.

With `O=C(CSc1nnc(-c2ccccc2F)n1C1CC1)Nc1cccnc1Cl`, the AC50 was > 100 µM (inactive).

As for `CS(=O)(=O)NCCSc1cc(C(F)(F)F)nc2ccccc12`, the AC50 was > 100 µM (inactive).

As to `O=C(O)CCn1c(SCc2cccc3ccccc23)nc2ccccc21`, the AC50 was > 100 µM (inactive). The molecule further had an AC50 under setting [1] of more than 100 µM.

In the case of `Cc1ccc(NS(=O)(=O)c2ccc3c(c2)CCC(=O)N3)cc1C`, the AC50 is > 100 µM (inactive). The AC50 under setting [1] was more than 100 µM.

For the molecule `O=C1OCCC1Sc1nc2ccccc2c(=O)n1Cc1ccccc1` (configuration not stated), the AC50 is > 100 µM (inactive).

For `O=C(COC(=O)Cc1ccccc1F)Nc1ccc(Cl)cn1`, the AC50 was > 100 µM (inactive).

As to `CN(C)S(=O)(=O)c1ccc(Cl)c(C(=O)OCC(=O)NC(=O)c2cccn2C)c1`, the AC50 was > 100 µM (inactive).

Under setting [1], `Cc1cccc(NC(=O)c2nc(S(=O)(=O)Cc3ccccc3)ncc2Cl)c1` displayed an AC50 of more than 100 µM.

With `COc1ccccc1CNC(=O)CN1C(=O)NC(c2ccccc2)(c2ccccc2)C1=O`, the AC50 is > 100 µM (inactive). Also, under setting [1], the AC50 was more than 100 µM.

The molecule `CC(CCc1ccccc1)NC(=O)CCC1CCCC1` (configuration not stated) gave an AC50 under setting [1] of more than 100 µM.

Regarding `CC(=O)Nc1ccc(OCc2nnc(-c3ccccc3)o2)cc1`, the AC50 was > 100 µM (inactive). Besides, the AC50 under setting [1] is more than 100 µM.

On to `Cc1nnc2sc(SCC(=O)Nc3ccc(Br)cc3)nn2c1=O`, for which the AC50 was > 100 µM (inactive). The molecule also gave an AC50 under setting [2] of more than 100 µM.

Turning to `COc1ccc(Oc2ccc(C(F)(F)F)cc2NC(=O)CC(CC(=O)O)c2ccccc2)cc1` (configuration not stated), the AC50 is > 100 µM (inactive). Under setting [1], the AC50 was more than 100 µM.

For the molecule `O=C(CN(c1ccc(F)cc1)S(=O)(=O)c1ccccc1)Nc1ccccc1C(=O)O`, under setting [1], the AC50 is more than 100 µM.

As to `Cc1ccccc1NS(=O)(=O)c1cc(C(=O)NCCC2=CCCCC2)ccc1C`, the AC50 is > 100 µM (inactive).

`Cc1cccc(OCCC(=O)Nc2ccc(F)c(F)c2)c1`: the AC50 is > 100 µM (inactive).

As for `O=C(Nc1ccccc1Cl)c1ccc2c(c1)N(Cc1ccc(F)cc1)C(=O)CS2=O` (configuration not stated), the AC50 was > 100 µM (inactive).

Consider `COc1ccc(OC)c(-c2nn(-c3ccccc3)cc2C(=O)N2CCc3ccccc3C2)c1`, for which the AC50 under setting [1] is more than 100 µM.

Under setting [1], `CC1Cc2ccccc2N1C(=O)CN1C(=O)NC(C)(CCc2ccccc2)C1=O` (configuration not stated) gave an AC50 of more than 100 µM.

On to `O=C(C1Cc2ccccc2CN1C(=O)c1ccccc1)N1CCN(c2ccccc2)CC1` (configuration not stated), for which the AC50 was > 100 µM (inactive). This molecule showed an AC50 under setting [1] of more than 100 µM. The molecule further returned an AC50 under setting [2] of more than 100 µM.

In turn, `Nc1ccccc1C#CC(=O)c1ccccc1` yielded an AC50 under setting [1] of 49 µM.

Under setting [1], `CCCN1C(=O)C(O)(c2c(C)[nH]c3ccccc23)c2ccccc21` (configuration not stated) showed a concentration at half-maximal activity (AC50) of more than 100 µM.

On to `O=C(O)c1nn2c(C(F)(F)F)cc(-c3cccs3)nc2c1Cl`, for which the AC50 is > 100 µM (inactive).

For `C=CCN(c1ccccc1)S(=O)(=O)c1ccc(Cl)c(C(=O)OCC(=O)NCCCN2CCCC2=O)c1`, under setting [1], the AC50 is more than 100 µM.

On to `CN1C(=O)c2cccc3c(S(=O)(=O)NCCc4ccccc4)ccc1c23`, for which the AC50 is > 100 µM (inactive). The AC50 under setting [1] was more than 100 µM.

On to `COc1ccc(N(CCC(=O)O)S(=O)(=O)c2ccc(C)cc2C)cc1`, for which the AC50 was > 100 µM (inactive). In addition, under setting [1], the AC50 is more than 100 µM.

As for `O=C(COC(=O)CCSc1ccc(F)cc1)NCc1ccc(F)cc1`, the AC50 is > 100 µM (inactive). For the same molecule, the AC50 under setting [1] was more than 100 µM.

For the molecule `COc1ccccc1NC(=O)COC(=O)Cc1c[nH]c2ccccc12`, the AC50 under setting [2] was more than 100 µM.

Molecule `COC(=O)CNC(=O)COC(=O)c1ccc(Cl)nc1` registered an AC50 under setting [1] of more than 100 µM.

`O=C(CCNC(=O)c1ccco1)Nc1cccc(Br)c1`: the AC50 under setting [1] is more than 100 µM.

Regarding `O=S(=O)(NOCc1ccc(Cl)cc1)c1ccc(Cl)cc1`, the AC50 under setting [1] is more than 100 µM.

Consider `CCOC(=O)C1(CCCc2ccccc2)CCN(C(=O)CCn2cncn2)CC1`, for which the AC50 is > 100 µM (inactive).

Take `O=C(O)CC1(CC(=O)Nc2ccc3sccc3c2)CCCCC1`: the AC50 was > 100 µM (inactive).

Turning to `Cn1nc(C(C)(C)C)c([N+](=O)[O-])c1C(=O)Nc1ccc(Br)cc1`, the AC50 was > 100 µM (inactive).

`CN(C)S(=O)(=O)N1CCN(c2ccccc2Cl)CC1`: the AC50 was > 100 µM (inactive). This molecule yielded an AC50 under setting [1] of more than 100 µM.

As to `O=[N+]([O-])c1cncc([N+](=O)[O-])c1Nc1cccc(O)c1`, the AC50 is > 100 µM (inactive). Moreover, the concentration at half-maximal activity (AC50) under setting [1] is more than 100 µM.

As to `Cc1ccc(C2NC(=O)c3[nH]nc(-c4ccccc4)c32)cc1` (configuration not stated), the AC50 is > 100 µM (inactive). The molecule also displayed a concentration at half-maximal activity (AC50) under setting [1] of more than 100 µM.

Consider `O=C1c2ccccc2C(c2nnnn2Cc2ccccc2)N1Cc1cccc(F)c1` (configuration not stated), for which, under setting [1], the concentration at half-maximal activity (AC50) was more than 100 µM.

For `COc1ccc(-c2csc(NC(=O)c3ccccc3S(C)(=O)=O)n2)cc1`, the AC50 is > 100 µM (inactive). In addition, under setting [1], the AC50 is more than 100 µM. Moreover, the AC50 under setting [2] was more than 100 µM.

Turning to `NC(=O)c1ccsc1NC(=O)COC(=O)Cc1ccc(F)cc1`, the AC50 was > 100 µM (inactive). Also, the AC50 under setting [2] was more than 100 µM.

Take `COc1ccc(CNc2cc([N+](=O)[O-])ccc2OC)cc1`: the AC50 was > 100 µM (inactive). Also, under setting [1], the AC50 is more than 100 µM. Under setting [2], this molecule gave a concentration at half-maximal activity (AC50) of more than 100 µM.

Consider `COc1cc(C2CC(=O)Oc3cc(C)cc(C)c32)cc(OC)c1OC` (configuration not stated), for which the AC50 is > 100 µM (inactive).

For `CCOc1ccc2nc(NC(=O)CSc3nc(SC)ns3)sc2c1`, the AC50 is > 100 µM (inactive). The same molecule yielded an AC50 under setting [1] of more than 100 µM.

In the case of `O=C(Nc1ccc2nc(-c3ccccc3)[nH]c2c1)c1cccs1`, the AC50 is > 100 µM (inactive). This molecule gave an AC50 under setting [1] of 51.4 µM.

`O=C(NCCO)c1cc2c([nH]c3ccccc32)c(-c2ccccc2)n1`: the AC50 was > 100 µM (inactive). The molecule also showed an AC50 under setting [1] of more than 100 µM. For the same molecule, the AC50 under setting [2] was more than 100 µM.

Regarding `O=C(Nc1nc2ccccc2n1CCN1CCOCC1)c1ccccc1`, the AC50 was > 100 µM (inactive).
